{
  "source": "patent US20100120703A1",
  "about": "“COMPOSITIONS AND METHODS FOR TREATING CANCER” (priority 2007, published 2010)",
  "key": {"HepG2 cells [1]": {"test_system": "HepG2 cells", "assay": "Apoptosis determination by DNA fragmentation assay", "assay_type": "cell-based, human", "from_the_text": "DNA fragmentation or DNA laddering is an indication of apoptosis. During the apoptosis process, the enzymes involved in DNA repair and cell replication are inactivated and nuclear proteins are degraded. After the nuclear structure is fragmented, DNA inside the nucleus is fragmented by the enzyme Caspase Activated DNase. This enzyme is only activated during apoptosis and causes the fragmentation of DNA into nucleosomal units (Hugh J M Brady, 2004). DNA fragmentation is used to identify the apoptosis event.\nHepG2 cells were treated and harvested as described in the foregoing examples. The cell pellet was re-suspended in 400 μl of the lysis buffer by vortexing. Twenty microliters of 10 mg/ml protease K were added into the solution after a complete dissolution. The solution was incubated at 37° C. for 3 hours to completely lyse the cells. After incubation, the solution was allowed to cool to room temperature. One hundred and fifty microliters of a saturated NaCl solution were added into the cell lysate and vortexed. The lysate was centrifuged at 7,000 rpm for 15 minutes. The supernatant was collected in a new microcentrifuge tube. One milliliter of ice cold absolute ethanol was added to the solution to precipitate DNA. After precipitation, the microcentrifuge tube was centrifuged at 14,000 rpm for 20 minutes at 4° C. […]"}, "HepG2 cells [2]": {"test_system": "HepG2 cells", "assay": "cDNA microarray, drug toxicity and metabolism genes", "assay_type": "cell-based, human", "conditions": "HepG2 cells before and after SIN treatment", "procedure": "The advancement of nucleic acid array technology has made it possible to analyze the expression of multiple genes in a single experiment. The cDNA Microarray is used to characterize gene expression associated with a specific biological pathway in a more comprehensive and cost effective manner. The genes on the cDNA microarray membrane are targeted to the drug toxicity and metabolism pathways. It is a useful approach to study the biological activities of SIN.\nHepG2 cells were treated and harvested as described in the foregoing examples. The cell pellet was dissolved in 500 μl TRIzol® reagent (Invitrogen, CA, USA). The whole solution was allowed to stand at room temperature for 5 minutes. The solution was centrifuged at 14,000 rpm for 10 minutes at 4° C. The supernatant was collected in a new tube with 100 μl chloroform. After shaking and incubation for 10 minutes at room temperature, the solution was centrifuged at 14,000 rpm for 15 minutes at 4° C. Recentrifugation was necessary if the layer was not clear. The upper aqueous layer was carefully transferred into a new tube with 250 μl isopropanol. After shaking, the tube was allowed to stand at room temperature for 10 minutes for RNA precipitation. […]\ncRNA purification was performed with SuperArray Array Grade cRNA Cleanup Kit. […] The quality and quantity of the cRNA product were determined as described previously. […]"}},
  "data": [
    {"smiles": "C=CC/C(=N/OS(=O)(=O)[O-])S[C@@H]1OC(CO)[C@@H](O)C(O)C1O.[K+]", "note": "(stereo partly drawn) [SIN, sinigrin]", "values": [
      {"measurement": "DNA ladder on agarose gel", "setting": "HepG2 cells [1]; 0.25 mM SIN", "result": "A DNA ladder started to appear"},
      {"measurement": "DNA ladder on agarose gel", "setting": "HepG2 cells [1]; 0.5 mM SIN, 96 hours", "result": "a DNA ladder was clearly visible"},
      {"measurement": "gene expression in drug toxicity and metabolism pathways", "setting": "HepG2 cells [2]", "result": "many genes in drug toxicity and metabolism pathways were differentially expressed"}
    ]}
  ]
}
